In PubChem BioAssay (NCI):
Where “and” joins values, the source holds several entries; their conditions need not be identical. Equal values may be shown once.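 Exposure lasted 48 hours, with cells grown in 96-well plates and compounds tested at five concentrations. Abbreviation: GI50, concentration required for 50% inhibition of growth. TGI: total growth inhibition.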

Tests used:
Test in all cases: growth of human tumour cells (NCI), 48 h
HOP-62 NSCLC = test system: HOP-62 NSCLC
HOP-92 NSCLC = test system: HOP-92 NSCLC
HT29 colon = test system: HT29 colon
SW-620 colon = test system: SW-620 colon
MOLT-4 leukemia = test system: MOLT-4 leukemia
SR leukemia = test system: SR leukemia
RPMI-8226 leukemia = test system: RPMI-8226 leukemia
SF-268 CNS = test system: SF-268 CNS
RXF 393 renal = test system: RXF 393 renal

Row | SMILES | TGI (HOP-62 NSCLC) [µM] | TGI (HOP-92 NSCLC) [µM] | TGI (HT29 colon) [µM] | TGI (SW-620 colon) [µM] | TGI (MOLT-4 leukemia) [µM] | TGI (SR leukemia) [µM] | TGI (RPMI-8226 leukemia) [µM] | TGI (SF-268 CNS) [µM] | TGI (RXF 393 renal) [µM] | GI50 (HOP-62 NSCLC) [nM] | GI50 (HOP-92 NSCLC) [nM] | GI50 (HT29 colon) [nM] | GI50 (SW-620 colon) [nM] | GI50 (MOLT-4 leukemia) | GI50 (RXF 393 renal) [nM] | GI50 (RPMI-8226 leukemia) [nM] | GI50 (SF-268 CNS) [nM]
1 | O=C(c1ccccc1)c1c(CNCc2ccccc2)n(C(=O)c2ccccc2)c2ccccc12 | > 100 | 82.1 | > 100 | > 100 | 65.5 | 80.7 | 55.1 | > 100 | – | – | – | – | – | – | – | – | –
2 | O=c1[nH]c(=O)n(C2CC(O)C(CO)O2)cc1C#Cc1cc(F)cc(F)c1 (stereo not given) | > 100 | – | > 100 | > 100 | > 100 | – | > 100 | > 100 | – | – | – | – | – | – | – | – | –
3 | CC1CCC23COC(=O)C2C(O)CCC3C1(C)CC(O)c1ccoc1 (stereo not given) | > 100 | > 100 | > 100 | > 100 | > 100 | – | – | > 100 | > 100 | – | – | – | – | – | – | – | –
4 | CCSc1nc2n(c(=S)n1)CCN2C | 68.8 | – | 37.2 | 56.9 | 39.1 | 29.9 | 61.7 | 65.8 | 23.7 | – | – | – | – | – | – | – | –
5 | CC(=O)NC(CCCCNC(=O)N(C)N=O)C(=O)NCc1ccccc1 (stereo not given) | > 100 | > 100 | > 100 | > 100 | > 100 | – | > 100 | > 100 | > 100 | – | – | – | – | – | – | – | –
6 | O=C(Nc1c(Cl)cc([N+](=O)[O-])cc1Cl)/C(=N\Nc1cccc(Cl)c1)c1c(O)c2ccccc2oc1=O | > 100 | – | > 100 | > 100 | > 100 | > 100 | > 100 | > 100 | > 100 | – | – | – | – | – | – | – | –
7 | CCN(CC)CCOc1ccc(C(=C2CCCCC2)c2ccc(OCCN(CC)CC)cc2)cc1 | 3.27 | 3.94 | 2.32 | 2.5 | 2.59 | – | 4.94 | 3.23 | 3.14 | – | – | – | – | – | – | – | –
8 | C/C(=N/N)c1ccc2[nH]c3c(C)cc([N+](=O)[O-])c(C)c3c2c1 | 20.9 | – | 90.1 | 24.7 | 19.8 | – | 64 | 60.4 | – | – | – | – | – | – | – | – | –
9 | S=C(Nc1ccccc1)N1N=C2c3ccccc3CC[C@H]2[C@@H]1c1ccccc1 | > 100 | – | > 100 | > 100 | > 100 | 1.96 | > 100 | > 100 | > 100 | – | – | – | – | – | – | – | –
10 | CSc1ccc2c(cc1=O)[C@@H](NC(=O)c1ccc(F)cc1)CCc1cc(O)c(O)c(O)c1-2 | > 100 | > 100 | > 100 | > 100 | > 100 | – | > 100 | > 100 | > 100 | – | – | – | – | – | – | – | –
11 | CC1=NN(C(=O)Cc2ccccc2)C(=O)/C1=C\c1ccco1 | > 100 | – | > 100 | > 100 | > 100 | > 100 | > 100 | > 100 | – | – | – | – | – | – | – | – | –
12 | COc1ccc(C#CCC(OC2OC(CO)C(O)C(O)C2O)C(O)c2ccc(OC)c(OC)c2)cc1OC (stereo not given) | > 100 | – | > 100 | > 100 | > 100 | > 100 | > 100 | > 100 | > 100 | – | – | – | – | – | – | – | –
13 | Cc1ccc(C2=C(c3ccccc3)C(O)(c3ccc(C)cc3)C(c3ccccc3)=C2c2ccc(C)cc2)cc1 | > 100 | > 100 | – | > 100 | > 100 | – | > 100 | > 100 | – | – | – | – | – | – | – | – | –
14 | COC(=O)C(Cc1nc2ccccc2[nH]c1=O)C(=O)C(=O)Nc1ccc(OC)cc1[N+](=O)[O-] (stereo not given) | > 100 | > 100 | > 100 | > 100 | > 100 | > 100 | > 100 | > 100 | – | – | – | – | – | – | – | – | –
15 | Nc1ccc(N)c2c1C(=O)c1c(N)ccc(N)c1C2=O | > 100 | > 92.3 | > 100 | > 100 | > 63.6 | – | > 100 | > 100 | > 93.5 | – | – | – | – | – | – | – | –
16 | CCNCCCCNCC | > 3750 | > 3750 | > 3750 | > 3750 | > 3750 | – | > 3750 | > 3750 | > 3750 | – | – | – | – | – | – | – | –
17 | O=C(CSc1nnc(-c2ccc(N=Cc3ccc(Cl)cc3)cc2)o1)Nc1cccc(Cl)c1 | > 100 | – | > 100 | > 100 | > 100 | > 100 | > 100 | > 100 | > 100 | – | – | – | – | – | – | – | –
18 | N#Cc1c2nc3ccccc3nc2n2ccc3ccccc3c12 | – | > 100 | > 100 | – | > 100 | – | > 100 | > 100 | – | – | – | – | – | – | – | – | –
19 | COc1cc([C@@H]2c3cc4c(c(O)c3C[C@H]3COC(=O)[C@@H]32)OCO4)cc(OC)c1O | > 200 | 0.113 | 1.53 | > 200 | 0.0374 | – | 49.1 | > 200 | – | 4.87 | 5.76 | 18.2 | 3.97 | 3.84 nM and 27.4 nM | 2.15 | 4.1 | 4.3
20 | CC(C)(O)[C@H](CCO)O[Si](c1ccccc1)(c1ccccc1)C(C)(C)C | – | 23.5 | 24.6 | 26.8 | 20 | 26.4 | 49.4 | 26.7 | – | – | – | – | – | – | – | – | –
